Data from patent publication US9708368B2, “Linear peptide antibiotics” (priority 2012, dated 2017).
Values after ≈ are worked out from the molar mass of the structure shown. Square brackets hold non-standard residues; d marks the D form. Peptide text beside a SMILES is read from it. * marks the point of attachment. boroAla((+)-pinanediol) = C[C@H](N*)B1O[C@@H]2C[C@@H]3C[C@@H](C3(C)C)[C@]2(C)O1; X7 = CC1(C)[C@@H]2C[C@H]3OB([C@@H]4CCCN4*)O[C@@]3(C)[C@H]1C2; Biphenylcarbonyl(4'-Bu) = CCCCc1ccc(-c2ccc(C(=O)*)cc2)cc1; X11 = CC[C@H](N*)B1OC2C[C@@H]3C[C@@H](C3(C)C)[C@]2(C)O1; X1 = C[C@H](N*)B1OC2C[C@@H]3C[C@@H](C3(C)C)[C@]2(C)O1; Benzoyl(4-(4-Cl-Ph)) = O=C(c1ccc(-c2ccc(Cl)cc2)cc1)*; Benzoyl(2,3-diOH) = O=C(c1cccc(O)c1O)*; Dopa = N[C@@H](Cc1ccc(O)c(O)c1)C(=O)O; NMeT = CN[C@H](C(=O)O)[C@@H](C)O; Lauroyl = CCCCCCCCCCCC(=O)*; Decanoyl = CCCCCCCCCC(=O)*; boroAla = C[C@H](N*)B(O)O; Dab = NCC[C@H](N)C(=O)O; Abu = CC[C@H](N)C(=O)O; βAla = NCCC(=O)O

Key:
[1] = test system: Escherichia coli strain MC4100 IMP-4213, which harbors an LptD mutation; conditions: Method B; E. coli MC4100 IMP-4213 (LptD mutation); 35° C., 22 hours
Outline: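 Two-fold serial dilutions of compound inoculated at final OD600 0.0005, incubated static at 35 °C for 22 h, and growth read visually.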

[2] = biological target: S. aureus SPase (Staphylococcus aureus, UniProt P0A070); assay: biochemical
[3] = test system: methicillin resistant Staphylococcus aureus (MRSA) strain USA300 (NRS384); conditions: Method B, 35° C., 22 hours
Procedure: In vitro antimicrobial activity of each compound was determined by measuring minimal inhibitor concentrations (MICs) using the broth micro-dilution technique as approved by the Clinical and Laboratory Standards Institute (CLSI). […] Bacterial inocula were prepared by scraping cells into 1 mL of testing media (cation adjusted Mueller Hinton Broth supplemented with 0.002% v/v Tween-80) and diluting to a final OD600 nm of 0.01.
Test compounds were prepared in DMSO at a concentration of 10 mg/ml. […] Bacterial inocula were added to the two fold serial dilutions of test compounds to a final density of OD OD600 nm of 0.0005 and incubated stationarily at 35° C. for 22 hours, after which the plates were examined visually.

[4] = biological target: E. coli SPase (Escherichia coli, UniProt P00803); assay: Biochemical SPase activity assay (fluorogenic peptide substrate), E. coli enzyme
E. coli SPase, sequence (P00803 whole entry): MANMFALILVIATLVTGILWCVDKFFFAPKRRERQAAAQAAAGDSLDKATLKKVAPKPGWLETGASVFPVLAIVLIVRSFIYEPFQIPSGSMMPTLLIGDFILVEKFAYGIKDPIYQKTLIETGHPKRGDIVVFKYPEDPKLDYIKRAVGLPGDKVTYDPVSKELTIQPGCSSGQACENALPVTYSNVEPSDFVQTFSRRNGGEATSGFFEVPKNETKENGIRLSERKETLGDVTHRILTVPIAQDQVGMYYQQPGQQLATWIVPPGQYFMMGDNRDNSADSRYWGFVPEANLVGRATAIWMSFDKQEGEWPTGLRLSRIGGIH
Procedure: Reactions were initiated by the addition of substrate to a final concentration of 20 μM. Reaction progress was monitored by measuring the increase in fluorescence signal (excitation at 314 nm, emission at 416 nm) using a SpectraMax M2 fluorescence microplate reader. […] Three-folder serial dilutions of test compounds, starting at 10 μM, were prepared in enzyme mix solution and incubated at room temperature for 10 minutes. Following this incubation, fluorogenic substrate was added to a final concentration of 20 μM and the increase in fluorescence, corresponding to substrate cleavage, was monitored continuously at room temperature for 1 hour. Initial reaction rates were calculated based on the rate of increase in fluorescence during the reaction. Reaction rates were plotted as a function of compound concentration, and IC50 values are determined nonlinear regression analysis (SoftMaxPro 5.4, Molecular Devices™) of the sigmoidal dose-response curve.

S. aureus SPase, sequence (P0A070 whole entry): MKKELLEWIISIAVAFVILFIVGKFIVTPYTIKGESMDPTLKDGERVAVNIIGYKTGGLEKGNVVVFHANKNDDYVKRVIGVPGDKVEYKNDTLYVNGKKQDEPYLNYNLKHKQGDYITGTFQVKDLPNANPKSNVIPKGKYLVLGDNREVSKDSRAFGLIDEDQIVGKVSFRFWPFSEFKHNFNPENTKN

SMILES	MIC (μg/mL) E. coli [1]	IC50 [2]	MIC (μg/mL) S. aureus [3]	IC50 [4]
CCCCc1ccc(-c2ccc(C(=O)N[C@@H](CCN)C(=O)N[C@H](C(=O)N[C@@H](C)C(=O)N[C@@H](CCCCN)C(=O)N[C@@H](C)B3O[C@@H]4C[C@@H]5C[C@@H](C5(C)C)[C@]4(C)O3)[C@@H](C)O)cc2)cc1 [Compound 187] ({Biphenylcarbonyl(4'-Bu)}-[Dab]TAK-{boroAla((+)-pinanediol)})	2.8 µg/mL (≈ 3.26 µM)	2100 nM	8 µg/mL (≈ 9.3 µM)	170 nM
CCCCc1ccc(-c2ccc(C(=O)N[C@@H](CCN)C(=O)N[C@@H](Cc3ccc(O)c(O)c3)C(=O)N[C@@H](C)C(=O)N[C@@H](CCCCN)C(=O)N[C@@H](C)B3O[C@@H]4C[C@@H]5C[C@@H](C5(C)C)[C@]4(C)O3)cc2)cc1 [Compound 188] ({Biphenylcarbonyl(4'-Bu)}-[Dab][Dopa]AK-{boroAla((+)-pinanediol)})	8 µg/mL (≈ 8.53 µM)	2900 nM	16 µg/mL (≈ 17.1 µM)	120 nM
CCCCc1ccc(-c2ccc(C(=O)N[C@@H](CCN)C(=O)N[C@@H](Cc3ccc(O)c(O)c3)C(=O)N[C@@H](C)C(=O)N[C@@H](Cc3ccc(O)c(O)c3)C(=O)N[C@@H](C)B3OC4C[C@@H]5C[C@@H](C5(C)C)[C@]4(C)O3)cc2)cc1 (stereo partly drawn) [Compound 189] ({Biphenylcarbonyl(4'-Bu)}-[Dab][Dopa]A[Dopa]-X1)	64 µg/mL (≈ 64.7 µM)	7700 nM	>64 µg/mL	430 nM
CCCCc1ccc(-c2ccc(C(=O)N[C@@H](CCN)C(=O)N[C@@H](CCN)C(=O)N[C@@H](C)C(=O)N[C@@H](CCCCNC(=O)c3cccc(O)c3O)C(=O)N[C@@H](C)B3OC4C[C@@H]5C[C@@H](C5(C)C)[C@]4(C)O3)cc2)cc1 (stereo partly drawn) [Compound 190] ({Biphenylcarbonyl(4'-Bu)}-[Dab][Dab]AK(Benzoyl(2,3-diOH))-X1)	>64 µg/mL	64000 nM	64 µg/mL (≈ 64.3 µM)	1300 nM
CCCCc1ccc(-c2ccc(C(=O)N[C@@H](CCCCN)C(=O)N[C@@H](C)C(=O)N[C@@H](CC(C)C)C(=O)N[C@@H](C)B(O)O)cc2)cc1 [Compound 191]	16 µg/mL (≈ 25.1 µM)	50000 nM	20 µg/mL (≈ 31.4 µM)	38000 nM
CCCCc1ccc(-c2ccc(C(=O)NCCC(=O)N[C@@H](CCCCN)C(=O)N(C)[C@H](C(=O)N[C@@H](C)C(=O)N[C@@H](CC(N)=O)C(=O)N[C@@H](C)B3OC4C[C@@H]5C[C@@H](C5(C)C)[C@]4(C)O3)[C@@H](C)O)cc2)cc1 (stereo partly drawn) [Compound 192] ({Biphenylcarbonyl(4'-Bu)-βAla}-K[NMeT]AN-X1)	16 µg/mL (≈ 16.7 µM)	12 nM	0.59 µg/mL (≈ 0.615 µM)	27 nM
CCCCc1ccc(-c2ccc(C(=O)NCCC(=O)N[C@@H](CCCCN)C(=O)N[C@H](C(=O)N[C@@H](C)C(=O)N[C@@H](CCCCN)C(=O)N[C@@H](C)B3OC4C[C@@H]5C[C@@H](C5(C)C)[C@]4(C)O3)[C@@H](C)O)cc2)cc1 (stereo partly drawn) [Compound 193] ({Biphenylcarbonyl(4'-Bu)-βAla}-KTAK-X1)	5 µg/mL (≈ 5.21 µM)	3 nM	0.16 µg/mL (≈ 0.167 µM)	15 nM
CCCCc1ccc(-c2ccc(C(=O)NCCC(=O)N[C@@H](CCCCN)C(=O)N[C@H](C(=O)N[C@@H](C)C(=O)N[C@H](C(=O)N[C@@H](C)B3O[C@@H]4C[C@@H]5C[C@@H](C5(C)C)[C@]4(C)O3)C(C)C)[C@@H](C)O)cc2)cc1 [Compound 194] ({Biphenylcarbonyl(4'-Bu)-βAla}-KTAV-{boroAla((+)-pinanediol)})	6.3 µg/mL (≈ 6.77 µM)	4.7 nM	0.71 µg/mL (≈ 0.763 µM)	16 nM
CCCCc1ccc(-c2ccc(C(=O)NCCC(=O)N[C@@H](CCCCN)C(=O)N[C@H](C(=O)N[C@@H](C)C(=O)N[C@@H](CCC(=O)O)C(=O)N[C@@H](C)B3OC4C[C@@H]5C[C@@H](C5(C)C)[C@]4(C)O3)[C@@H](C)O)cc2)cc1 (stereo partly drawn) [Compound 195] ({Biphenylcarbonyl(4'-Bu)-βAla}-KTAE-X1)	32 µg/mL (≈ 33.3 µM)	2.6 nM	1.2 µg/mL (≈ 1.25 µM)	19 nM
CCCCc1ccc(-c2ccc(C(=O)NCCC(=O)N[C@@H](CCCCN)C(=O)N[C@H](C(=O)N[C@@H](C)C(=O)N[C@@H](Cc3c[nH]cn3)C(=O)N[C@@H](C)B3OC4C[C@@H]5C[C@@H](C5(C)C)[C@]4(C)O3)[C@@H](C)O)cc2)cc1 (stereo partly drawn) [Compound 196] ({Biphenylcarbonyl(4'-Bu)-βAla}-KTAH-X1)	2.5 µg/mL (≈ 2.58 µM)	5.7 nM	0.66 µg/mL (≈ 0.682 µM)	8.8 nM
CCCCc1ccc(-c2ccc(C(=O)NCCC(=O)N[C@@H](CCCCN)C(=O)N[C@@H](CCCCN)C(=O)N[C@@H](C)C(=O)N[C@@H](CC(N)=O)C(=O)N[C@@H](C)B3OC4C[C@@H]5C[C@@H](C5(C)C)[C@]4(C)O3)cc2)cc1 (stereo partly drawn) [Compound 197] ({Biphenylcarbonyl(4'-Bu)-βAla}-KKAN-X1)	1 µg/mL (≈ 1.03 µM)	6.2 nM	0.3 µg/mL (≈ 0.309 µM)	11 nM
CCCCc1ccc(-c2ccc(C(=O)NCCC(=O)N[C@@H](CCCCN)C(=O)N[C@H](C(=O)N[C@@H](C)C(=O)N[C@@H](CC(C)C)C(=O)N[C@@H](C)B3OC4C[C@@H]5C[C@@H](C5(C)C)[C@]4(C)O3)[C@@H](C)O)cc2)cc1 (stereo partly drawn) [Compound 198] ({Biphenylcarbonyl(4'-Bu)-βAla}-KTAL-X1)	5 µg/mL (≈ 5.3 µM)	8.9 nM	0.5 µg/mL (≈ 0.53 µM)	42 nM
CCCCCCCCCC(=O)NCCC(=O)N[C@@H](CCCCN)C(=O)N[C@H](C(=O)N[C@@H](C)C(=O)N[C@@H](CC(N)=O)C(=O)N[C@@H](C)B1OC2C[C@@H]3C[C@@H](C3(C)C)[C@]2(C)O1)[C@@H](C)O (stereo partly drawn) [Compound 199] ({Decanoyl-βAla}-KTAN-X1)	>64 µg/mL	1.4 nM	7 µg/mL (≈ 8.11 µM)	4.5 nM
CCCCc1ccc(-c2ccc(C(=O)NCCC(=O)N[C@@H](CCCCN)C(=O)N[C@H](C(=O)N[C@@H](C)C(=O)N[C@@H](CC(N)=O)C(=O)N3CCC[C@H]3B3O[C@@H]4C[C@@H]5C[C@@H](C5(C)C)[C@]4(C)O3)[C@@H](C)O)cc2)cc1 [Compound 200] ({Biphenylcarbonyl(4'-Bu)-βAla}-KTAN-X7)	64 µg/mL (≈ 65.9 µM)	1200 nM	>64 µg/mL	5200 nM
C[C@H](NC(=O)[C@H](CC(N)=O)NC(=O)[C@H](C)NC(=O)[C@@H](NC(=O)[C@H](CCCCN)NC(=O)CCNC(=O)c1ccc(-c2ccc(Cl)cc2)cc1)[C@@H](C)O)B1OC2C[C@@H]3C[C@@H](C3(C)C)[C@]2(C)O1 (stereo partly drawn) [Compound 201] ({Benzoyl(4-(4-Cl-Ph))-βAla}-KTAN-X1)	64 µg/mL (≈ 69.3 µM)	1.9 nM	4.6 µg/mL (≈ 4.98 µM)	8 nM
CCCCCCCCCCCC(=O)NCCC(=O)N[C@@H](CCCCN)C(=O)N[C@H](C(=O)N[C@@H](C)C(=O)N[C@@H](CC(N)=O)C(=O)N[C@@H](C)B1OC2C[C@@H]3C[C@@H](C3(C)C)[C@]2(C)O1)[C@@H](C)O (stereo partly drawn) [Compound 202] ({Lauroyl-βAla}-KTAN-X1)	23 µg/mL (≈ 25.8 µM)	3.5 nM	1.1 µg/mL (≈ 1.23 µM)	7.1 nM
CCCCc1ccc(-c2ccc(C(=O)NCCC(=O)N[C@@H](CCCCN)C(=O)N[C@H](C(=O)N[C@@H](C)C(=O)N[C@@H](CC(N)=O)C(=O)N[C@@H](CC)B3OC4C[C@@H]5C[C@@H](C5(C)C)[C@]4(C)O3)[C@@H](C)O)cc2)cc1 (stereo partly drawn) [Compound 203] ({Biphenylcarbonyl(4'-Bu)-βAla}-KTAN-X11)	32 µg/mL (≈ 33.4 µM)	21 nM	1.4 µg/mL (≈ 1.46 µM)	130 nM
CCCCc1ccc(-c2ccc(C(=O)NCCC(=O)N[C@@H](CCCCN)C(=O)N[C@H](C(=O)N[C@@H](C)C(=O)N[C@@H](CC(N)=O)C(=O)N[C@@H](C)B(O)O)[C@@H](C)O)cc2)cc1 [Compound 204] ({Biphenylcarbonyl(4'-Bu)-βAla}-KTAN-boroAla)	4.6 µg/mL (≈ 5.67 µM)	13 nM	0.45 µg/mL (≈ 0.555 µM)	33 nM
CCCCc1ccc(-c2ccc(C(=O)NCCC(=O)N[C@@H](CCCCN)C(=O)N[C@H](C(=O)N[C@@H](CC)C(=O)N[C@@H](CC(N)=O)C(=O)N[C@@H](CC)B3OC4C[C@@H]5C[C@@H](C5(C)C)[C@]4(C)O3)[C@@H](C)O)cc2)cc1 (stereo partly drawn) [Compound 205] ({Biphenylcarbonyl(4'-Bu)-βAla}-KT[Abu]N-X11)	32 µg/mL (≈ 32.9 µM)	20 nM	2 µg/mL (≈ 2.06 µM)	210 nM
CCCCc1ccc(-c2ccc(C(=O)NCCC(=O)N[C@@H](CCCCN)C(=O)N[C@H](C(=O)N[C@@H](CC)C(=O)N[C@@H](CC(N)=O)C(=O)N[C@@H](C)B3OC4C[C@@H]5C[C@@H](C5(C)C)[C@]4(C)O3)[C@@H](C)O)cc2)cc1 (stereo partly drawn) [Compound 206] ({Biphenylcarbonyl(4'-Bu)-βAla}-KT[Abu]N-X1)	2 µg/mL (≈ 2.09 µM)	5.2 nM	0.5 µg/mL (≈ 0.521 µM)	6.3 nM
CCCCc1ccc(-c2ccc(C(=O)NCCC(=O)N[C@@H](CCCCN)C(=O)N[C@@H](CCCCN)C(=O)N[C@@H](C)C(=O)N[C@@H](CCCCN)C(=O)N[C@@H](C)B3OC4C[C@@H]5C[C@@H](C5(C)C)[C@]4(C)O3)cc2)cc1 (stereo partly drawn) [Compound 207] ({Biphenylcarbonyl(4'-Bu)-βAla}-KKAK-X1)	2 µg/mL (≈ 2.03 µM)	13 nM	0.099 µg/mL (≈ 0.1 µM)	87 nM
